ChEMBL document CHEMBL1136346, “Synthesis of linked carbohydrates and evaluation of their binding for 16S RNA by mass spectrometry” (Bioorg Med Chem Lett, 2003)

Experiment: Binding affinity against bacterial 16S rRNA using mass spectrometry based assay
Set-up: species or system Escherichia coli

Going from `CN(CCN(C)CC(O)CO[C@H]1O[C@H](CO)[C@@H](O)[C@H](O)[C@H]1N)CC(O)CO[C@@H]1O[C@H](CO)[C@@H](O)[C@H](O)[C@H]1N` (stereo partly drawn) to `CN(CCCCN(C)CC(O)CO[C@H]1O[C@H](CO)[C@@H](O)[C@H](O)[C@H]1N)CC(O)CO[C@@H]1O[C@H](CO)[C@@H](O)[C@H](O)[C@H]1N` (stereo partly drawn), the Kd falls from 146 µM to 45 µM (3.2-fold). The second binds more tightly here.

Going from `CN(CCN(C)CC(O)CO[C@H]1[C@H](O)[C@@H](O)[C@H](N)C[C@@H]1N)CC(O)CO[C@H]1O[C@H](CO)[C@@H](O)[C@H](O)[C@H]1N` (stereo partly drawn) to `CN(CCCCN(C)CC(O)CO[C@H]1[C@H](O)[C@@H](O)[C@H](N)C[C@@H]1N)CC(O)CO[C@H]1O[C@H](CO)[C@@H](O)[C@H](O)[C@H]1N` (stereo partly drawn), the Kd falls from 335 µM to 54 µM (6.2-fold). The second binds more tightly here.

Going from `NC[C@H]1O[C@H](OCC(O)CN2CCN(CC(O)CO[C@H]3O[C@H](CN)[C@@H](O)[C@H](O)[C@H]3N)CC2)[C@H](N)[C@@H](O)[C@@H]1O` (stereo partly drawn) to `CN(CCN(C)CC(O)CO[C@H]1O[C@H](CN)[C@@H](O)[C@H](O)[C@H]1N)CC(O)CO[C@@H]1O[C@H](CN)[C@@H](O)[C@H](O)[C@H]1N` (stereo partly drawn), the Kd falls from 32 µM to 20 µM (1.6-fold). The second binds more tightly here.

Compared with `N[C@@H]1C[C@H](N)[C@@H](O)[C@H](OCC(O)CNCCCCNCC(O)CO[C@@H]2[C@@H](O)[C@H](N)C[C@H](N)[C@H]2O)[C@H]1O` (stereo partly drawn), `CN(CCCCN(C)CC(O)CO[C@H]1[C@H](O)[C@@H](O)[C@H](N)C[C@@H]1N)CC(O)CO[C@H]1[C@H](O)[C@@H](O)[C@H](N)C[C@@H]1N` (stereo partly drawn) is 6-fold lower in Kd: 96 µM for the first, 16 µM for the second.

Going from `CN(CCN(C)CC(O)CO[C@H]1[C@H](O)[C@@H](O)[C@H](N)C[C@@H]1N)CC(O)CO[C@H]1[C@H](O)[C@@H](O)[C@H](N)C[C@@H]1N` (stereo partly drawn) to `CN(CCCCCCN(C)CC(O)CO[C@H]1[C@H](O)[C@@H](O)[C@H](N)C[C@@H]1N)CC(O)CO[C@H]1[C@H](O)[C@@H](O)[C@H](N)C[C@@H]1N` (stereo partly drawn), the Kd falls from 57 µM to 21 µM (2.7-fold). The second binds more tightly here.

`CN(CCCCCCN(C)CC(O)CO[C@H]1[C@H](O)[C@@H](O)[C@H](N)C[C@@H]1N)CC(O)CO[C@H]1O[C@H](CO)[C@@H](O)[C@H](O)[C@H]1N` (stereo partly drawn) and `CN(CCCCCCN(C)CC(O)CO[C@H]1[C@H](O)[C@@H](O)[C@H](N)C[C@@H]1N)CC(O)CO[C@H]1O[C@H](CN)[C@@H](O)[C@H](O)[C@H]1N` (stereo partly drawn) are within 1.5-fold of each other in Kd: 39 µM for the first, 32 µM for the second.

`CN(CCCCN(C)CC(O)CO[C@H]1O[C@H](CN)[C@@H](O)[C@H](O)[C@H]1N)CC(O)CO[C@@H]1O[C@H](CN)[C@@H](O)[C@H](O)[C@H]1N` (stereo partly drawn) and `CN(CCCCCCN(C)CC(O)CO[C@H]1O[C@H](CN)[C@@H](O)[C@H](O)[C@H]1N)CC(O)CO[C@@H]1O[C@H](CN)[C@@H](O)[C@H](O)[C@H]1N` (stereo partly drawn) are within 1.5-fold of each other in Kd: 16 µM for the first, 11 µM for the second.

Compared with `C=CCO[C@H]1O[C@H](CO)[C@@H](O)[C@H](O)[C@H]1N`, `C=CCO[C@H]1O[C@H](CN)C(O)[C@H](O)[C@H]1N` (stereo partly drawn) is 4.9-fold lower in Kd: 1590 µM for the first, 327 µM for the second. The second binds more tightly here.

Going from `CN(CCCCN(C)CC(O)CO[C@H]1[C@H](O)[C@@H](O)[C@H](N)C[C@@H]1N)CC(O)CO[C@H]1O[C@H](CN)[C@@H](O)[C@H](O)[C@H]1N` (stereo partly drawn) to `CN(CCCCN(C)CC(O)CO[C@@H]1[C@@H](O)[C@H](N)C[C@H](N)[C@H]1O)CC(O)CO[C@H]1O[C@H](CN)[C@@H](O)[C@H](O)[C@H]1N` (stereo partly drawn), the Kd rises from 13 µM to 25 µM (1.9-fold). The first binds more tightly here.

Going from `CN(CCCCCCN(C)CC(O)CO[C@H]1O[C@H](CO)[C@@H](O)[C@H](O)[C@H]1N)CC(O)CO[C@@H]1O[C@H](CO)[C@@H](O)[C@H](O)[C@H]1N` (stereo partly drawn) to `CN(CCCCN(C)CC(O)CO[C@@H]1[C@@H](O)[C@H](N)C[C@H](N)[C@H]1O)CC(O)CO[C@H]1O[C@H](CO)[C@@H](O)[C@H](O)[C@H]1N` (stereo partly drawn), the Kd falls from 52 µM to 29 µM (1.8-fold).

Compared with `CN(CCN(C)CC(O)CO[C@H]1[C@H](O)[C@@H](O)[C@H](N)C[C@@H]1N)CC(O)CO[C@H]1O[C@H](CN)[C@@H](O)[C@H](O)[C@H]1N` (stereo partly drawn), `N[C@@H]1C[C@H](N)[C@@H](OC(=O)CCCC(=O)O[C@H]2[C@H](O)[C@@H](O)[C@H](N)C[C@@H]2N)[C@H](O)[C@H]1O` is 2.2-fold higher in Kd: 47 µM for the first, 105 µM for the second. The first binds more tightly here.

`N[C@@H]1C[C@H](N)[C@@H](O)[C@H](O)[C@H]1O` gave a Kd of 130 µM.
